Body weight, Serum cholesterol and Uterine weight data for three molecules are collected here from ChEMBL document CHEMBL1129013, “Benzopyran selective estrogen receptor modulators (SERMs): Pharmacological effects and structural correlation with raloxifene” (1996).

The structures appear in SMILES notation.

In test [1] the test system is Rattus norvegicus. The test can be described thus: Reduction in body weight in rat model at dose 0.01 mg/kg (p.o.). In kind it is functional. Particulars: route oral.
Test [2] deals with Rattus norvegicus. The test can be described thus: Reduction in body weight in rat model at dose 0.1 mg/kg (p.o.). The format is functional. Particulars: route oral.
For test [3], the system named is Rattus norvegicus. The experiment in a line: Reduction in body weight in rat model at dose 1.0 mg/kg (p.o.). The format is functional. Particulars: route oral.
The subject of test [4] is Rattus norvegicus. The test can be described thus: Reduction in body weight in rat model at dose 10.0 mg/kg (p.o.). The format is functional. Particulars: route oral.
The test system of test [5] is Rattus norvegicus. The test can be described thus: Reduction in serum cholesterol in rat model at dose 0.01 mg/kg (p.o.). Further details: dose 0.01 mg/kg. The format is functional, organism-based.
The test system of test [6] is Rattus norvegicus. The experiment in a line: Reduction in serum cholesterol in rat model at dose 0.1 mg/kg (p.o.). The format is functional, organism-based. The arrangement: dose 0.1 mg/kg.
Test [7] relates to Rattus norvegicus. The experiment in a line: Reduction in serum cholesterol in rat model at dose 1.0 mg/kg (p.o.). The arrangement: dose 1 mg/kg. In kind it is functional, organism-based.
Test [8] deals with Rattus norvegicus. The test can be described thus: Reduction in serum cholesterol in rat model at dose 10.0 mg/kg (p.o.). The arrangement: dose 10 mg/kg. In kind it is functional, organism-based.
Test [9] concerns Rattus norvegicus. The experiment in a line: Reduction in uterine weight in rat model at dose 0.01 mg/kg (p.o.). In kind it is functional. Particulars: route oral.
Test [10] concerns Rattus norvegicus. The test can be described thus: Reduction in uterine weight in rat model at dose 0.1 mg/kg (p.o.). In kind it is functional. Particulars: route oral.
For test [11], the system named is Rattus norvegicus. The test can be described thus: Reduction in uterine weight in rat model at dose 1.0 mg/kg (p.o.). In kind it is functional. Particulars: route oral.
Test [12] has as its system Rattus norvegicus. The experiment in a line: Reduction in uterine weight in rat model at dose 10.0 mg/kg (p.o.). In kind it is functional. Particulars: route oral.

Turning to `CC1=C(c2ccc(O)cc2)C(c2ccc(OCCN3CCCCC3)cc2)Oc2cc(O)ccc21` (configuration not stated), the Body weight with Rattus norvegicus [1] turned out to be 306 g; in the test on Rattus norvegicus [2], 281 g; with Rattus norvegicus [3] it was 295 g; in the test with Rattus norvegicus [4], 302 g. Further, the Serum cholesterol with Rattus norvegicus [5] is 79 mg/dL; in the test with Rattus norvegicus [6] it was 69.8 mg/dL; with Rattus norvegicus [7], 42.3 mg/dL; in the test on Rattus norvegicus [8], 57.4 mg/dL. The Uterine weight in the test on Rattus norvegicus [9] is 128.2 mg; in the test on Rattus norvegicus [10], 160.2 mg; in the test on Rattus norvegicus [11] it was 134.2 mg; in the test with Rattus norvegicus [12], 135.2 mg.

As for `C#C[C@]1(O)CC[C@H]2[C@@H]3CCc4cc(O)ccc4[C@H]3CC[C@@]21C` [ETHINYL ESTRADIOL], the Body weight in the test on Rattus norvegicus [2] was 274 g. Besides, the Serum cholesterol in the test on Rattus norvegicus [6] was found to be 37.1 mg/dL. In addition, in the test on Rattus norvegicus [10], the Uterine weight came out at 319 mg.

Turning to `Oc1ccc(C2=Cc3ccc(O)cc3OC2c2ccc(OCCN3CCCCC3)cc2)cc1` (configuration not stated), the Body weight in the test on Rattus norvegicus [1] was 334 g; with Rattus norvegicus [2], 314 g; with Rattus norvegicus [3] it was 287 g; in the test on Rattus norvegicus [4], 284 g. The Serum cholesterol with Rattus norvegicus [5] came to 92.1 mg/dL; in the test on Rattus norvegicus [6], 69.3 mg/dL; in the test with Rattus norvegicus [7] it was 52.6 mg/dL; in the test on Rattus norvegicus [8], 53 mg/dL. Besides, the Uterine weight came to 105.7 mg with Rattus norvegicus [9], 132.2 mg in the test on Rattus norvegicus [10], 151 mg with Rattus norvegicus [11] and 124.2 mg in the test on Rattus norvegicus [12].
